# Structures can show the parent of a compound that is named as a salt.
# Experiments:
# [1] = molecular target: T1, dopamine D2S receptor (human recombinant expressed in CHO cells) (Homo sapiens, UniProt P14416); experiment: Dopamine, D2S (human recombinant) radioligand binding assay, [3H]Spiperone; conditions: for IC50: six concentrations 0.5-1000 nM
# T1 construct: expressed in transfected cells; host or cells: CHO cells
# Method: The piperazine derivatives comprising Formulae (I)-(X) described in this invention were tested in the in vitro pharmacological assays to evaluate their activities for dopamine, D2S, serotonin, 5-HT1A and serotonin, 5-HT2A receptors. The in vitro assay protocols and literature references are described herein. • Dopamine, D2S (human recombinant) binding assay: • Materials and Methods: [table] The reactions were carried out in 50 mM TRIS-Hal (pH 7.4) containing 120 mM NaCl, 5 mM KCl, 5 mM MgCl2, 1 mM EDTA for 60 minutes at 25 C. The reaction was terminated by rapid vacuum filtration onto glass fiber filters. Radioactivity trapped onto the filters was determined and compared to control values in order to ascertain any interactions of test compounds with the cloned dopamine—D2 short binding site (Literature Reference: Jarvis, K. R. et al. Journal of Receptor Research 1993, 13(1-4), 573-590; Gundlach, A. L. et al. Life Sciences 1984, 35, 1981-1988.) • Serotonin, 5HT1A (human recombinant) binding assay: • Materials and Methods: The radioligand binding assays for dopamine-D2S, serotonin-5HT1A and serotonin-5HT2A were carried out at six different concentrations and the test concentrations were 0.5 nM, 1 nM, 10 nm, 100 nM, 300 nM and 1000 nM.
# [2] = molecular target: T2, serotonin 5-HT1A receptor (human recombinant expressed in HEK-293 cells) (Homo sapiens, UniProt P08908); experiment: Serotonin, 5HT1A (human recombinant) radioligand binding assay, [3H]-8-OH-DPAT; conditions: human recombinant in HEK-293 cells; for IC50: six concentrations 0.5-1000 nM
# T2 construct: expressed in transfected cells; host or cells: HEK-293 cells (from the result head)
# T2 sequence (P08908 1-422): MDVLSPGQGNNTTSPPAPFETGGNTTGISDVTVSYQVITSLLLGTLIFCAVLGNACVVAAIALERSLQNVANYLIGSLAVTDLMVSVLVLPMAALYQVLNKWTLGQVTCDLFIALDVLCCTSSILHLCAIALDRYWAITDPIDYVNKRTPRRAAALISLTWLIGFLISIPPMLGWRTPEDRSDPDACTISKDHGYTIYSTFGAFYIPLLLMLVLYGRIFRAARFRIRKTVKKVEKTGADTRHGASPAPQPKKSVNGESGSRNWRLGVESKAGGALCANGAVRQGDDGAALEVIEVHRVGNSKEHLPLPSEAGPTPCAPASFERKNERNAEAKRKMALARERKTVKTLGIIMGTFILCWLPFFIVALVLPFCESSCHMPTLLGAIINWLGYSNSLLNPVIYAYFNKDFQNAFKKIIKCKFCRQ
# Method: (§1) The reactions were carried out in 50 mM TRIS-Hal (pH 7.4) containing 10 mM MgSO4, 0.5 mM EDTA and 0.1% Ascorbic acid at room temperature for 1 hour. The reaction was terminated by rapid vacuum filtration onto glass fiber filters. Radioactivity trapped onto the filters was determined and compared to control values in order to ascertain any interactions of test compounds with the cloned serotonin—5HT1A binding site (Literature Reference: Hoyer, D. et al. Eur. Journal Pharmacol. 1985, 118, 13-23; Schoeffier, P. and Hoyer, D. Naunyn-Schmiedeberg's Arch. Pharmac. 1989, 340, 135-138) • Serotonin, 5HT2A (human) binding assay: • Materials and Methods: • Receptor Source: Human Cortex • Radioligand: [^3H]-Ketanserin (60-90 Ci/mmol) • Control Compound: Ketanserin • Incubation Conditions:
# (§2) The radioligand binding assays for dopamine-D2S, serotonin-5HT1A and serotonin-5HT2A were carried out at six different concentrations and the test concentrations were 0.5 nM, 1 nM, 10 nm, 100 nM, 300 nM and 1000 nM.
# [3] = molecular target: T3, serotonin 5-HT2A receptor (Human Cortex) (Homo sapiens, UniProt P28223); experiment: Serotonin, 5HT2A (human) radioligand binding assay, [3H]-Ketanserin; conditions: for IC50: six concentrations 0.5-1000 nM
# T3 construct: Receptor Source: Human Cortex; from tissue; host or cells: human cortex
# Method: as §1
# The reactions were carried out in 50 mM TRIS-Hal (pH 7.6) at room temperature for 90 minutes. The reaction was terminated by rapid vacuum filtration onto glass fiber filters. Radioactivity trapped onto the filters was determined and compared to control values in order to ascertain any interactions of test compounds with the serotonin—5HT2A binding site (Literature Reference: Leysen, J. E. et al. Mol. Pharmacol. 1982, 21, 301-314; Martin, G. R. and Humphrey, P. P. A. Neuropharmacol. 1994, 33(3/4), 261-273.)
# as §2
# T1 sequence (P14416 1-414 isoform P14416-2): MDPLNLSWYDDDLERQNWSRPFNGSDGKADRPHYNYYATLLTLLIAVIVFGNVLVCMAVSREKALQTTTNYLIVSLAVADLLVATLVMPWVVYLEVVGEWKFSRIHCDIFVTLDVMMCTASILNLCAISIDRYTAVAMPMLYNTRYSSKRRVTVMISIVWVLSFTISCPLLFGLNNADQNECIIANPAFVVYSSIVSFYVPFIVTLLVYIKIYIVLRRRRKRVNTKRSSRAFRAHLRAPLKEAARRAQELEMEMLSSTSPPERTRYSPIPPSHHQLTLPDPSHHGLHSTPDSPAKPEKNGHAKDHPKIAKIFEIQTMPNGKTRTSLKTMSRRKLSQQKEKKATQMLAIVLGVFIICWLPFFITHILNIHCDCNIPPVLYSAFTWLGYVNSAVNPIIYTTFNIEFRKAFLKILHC
# T3 sequence (P28223 whole entry): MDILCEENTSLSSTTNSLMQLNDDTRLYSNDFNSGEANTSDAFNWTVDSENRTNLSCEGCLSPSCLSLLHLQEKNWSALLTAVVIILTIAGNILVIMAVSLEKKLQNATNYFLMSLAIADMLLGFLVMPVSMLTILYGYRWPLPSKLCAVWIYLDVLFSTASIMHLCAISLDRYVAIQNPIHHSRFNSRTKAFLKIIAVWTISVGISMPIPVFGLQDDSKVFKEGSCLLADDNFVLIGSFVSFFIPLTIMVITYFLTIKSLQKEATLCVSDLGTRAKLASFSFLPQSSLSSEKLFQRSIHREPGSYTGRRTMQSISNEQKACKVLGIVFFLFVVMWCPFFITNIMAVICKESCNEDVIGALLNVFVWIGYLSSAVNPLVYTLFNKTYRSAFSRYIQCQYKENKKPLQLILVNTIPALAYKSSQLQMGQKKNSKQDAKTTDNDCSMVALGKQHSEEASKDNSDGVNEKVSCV
Ki [1],IC50 [1],Ki [2],IC50 [2],Ki [3],IC50 [3],Compound
0.00289 µM,0.00789 µM,0.0114 µM,0.0185 µM,0.0574 µM,0.11 µM,"O=C(CCCN1CCN(c2cccc(Cl)c2Cl)CC1)Nc1ccc2c(c1)NC(=O)CO2 [Compound 5b, 4-(4-(2,3-Dichlorophenyl)piperazin-1-yl)-N-(3-oxo-3,4-dihydro-2H-benzo[b][1,4]oxazin-6-yl)butanamide hydrochloride]"
0.00677 µM,0.0192 µM,0.0102 µM,0.0167 µM,0.282 µM,0.572 µM,"CCOC(=O)CCCOc1ccccc1N1CCN(CCCCOc2ccc3c(c2)NC(=O)CO3)CC1 [Compound 18a, Ethyl 4-(2-(4-(4-(3-oxo-3,4-dihydro-2H-benzo[b][1,4]oxazin-6-yloxy)butyl)piperazin-1-yl)phenoxy)butanoate hydrochloride]"
0.0502 µM,0.147 µM,0.0033 µM,0.00544 µM,0.34 µM,0.622 µM,"CCOC(=O)C(C)(C)CCOc1ccccc1N1CCN(CCCCOc2ccc3c(c2)NC(=O)CO3)CC1 [Compound 18b, Ethyl 2,2-dimethyl-4-(2-(4-(4-(3-oxo-3,4-dihydro-2H-benzo[b][1,4]oxazin-6-yloxy)butyl)piperazin-1-yl)phenoxy)butanoate hydrochloride]"
0.00209 µM,0.00593 µM,0.00267 µM,0.00441 µM,0.185 µM,0.376 µM,"CCOC(=O)C(C)(C)Oc1ccccc1N1CCN(CCCCOc2ccc3c(c2)NC(=O)CO3)CC1 [Compound 18c, Ethyl 2-methyl-2-(2-(4-(4-(3-oxo-3,4-dihydro-2H-benzo[b][1,4]oxazin-6-yloxy)butyl)piperazin-1-yl)phenoxy)propanoate hydrochloride]"

Compound,Ki [1],IC50 [1],Ki [2],IC50 [2],Ki [3],IC50 [3]
"CCOC(=O)CN1C(=O)COc2ccc(OCCCCN3CCN(c4cccc(Cl)c4Cl)CC3)cc21 [Compound 28c, Ethyl 2-(6-(4-(4-(2,3-dichlorophenyl)piperazin-1-yl)butoxy)-3-oxo-2H-benzo[b][1,4]oxazin-4(3H)-yl)acetate hydrochloride]",0.0155 µM,0.0494 µM,0.00296 µM,0.00445 µM,0.106 µM,0.237 µM

# From patent US8207163B2, “Compositions, synthesis, and methods of using piperazine based antipsychotic agents” (Reviva Pharmaceuticals, Inc., priority 2008, dated 2012)
